Laboratory results taken from patent US11911361B2, “Stable cannabinoid formulations” (priority 2014, dated 2024).

Legend:
[1] = Pharmacokinetic food-effect study, single 20 mg/kg dose, healthy subjects (Example 17); conditions: for AUC / AUC(0-t) / AUC(0-inf) / Cmax / Tmax: human, in vivo, po, 20 mg/kg; for AUC: AUC0, cannabidiol; for Tmax: median (min, max)
Procedure: (§1) An open label, randomized, single-dose, two-period, two-way crossover food-effect study was conducted on healthy subjects. […] Twenty-four (24) subjects were enrolled in the study and each were subjected to the fasted and fed treatment arms in separate periods followed by a 7-day wash-out period. For pharmacokinetic analysis, nominal time and default lambda-z selections were used. All below quantifiable limit values were set to zero and all subjects were included in the analysis.
(§2) Data from 13 subjects from the fasted treatment and 24 subject from the fed treatment were included in the pharmacokinetic and statistical analyses.

[2] = Long-term safety study in pediatric patients with refractory epilepsy; conditions: human, in vivo, oral, 48 week
Source text: This was a long-term, open-label, 48-week study for pediatric subjects aged 1 year to 17 years with refractory epilepsy.
The study included 5 subjects aged 1 to <2 years (infants); 9 subjects aged 2 to <12 years (children), with ≥3 subjects under the age of 6 years; 6 subjects aged 12 to ≤17 years (adolescents), with ≥3 subjects under the age of 16 years.

clinical = conditions: human, in vivo, po, 20 mg/kg, single 20 mg/kg oral dose of cannabidiol solution, mean; for CL/F / Vd/F: cannabidiol; for half-life: t1/2, cannabidiol
Procedure: as §1, §2

[3] = cannabidiol, single 20 mg/kg oral dose of cannabidiol solution, fasted, mean
[4] = cannabidiol, single 20 mg/kg oral dose of cannabidiol solution, fed, mean

## C=C(C)[C@@H]1CCC(C)=C[C@H]1c1c(O)cc(CCCCC)cc1O [cannabidiol, (−)-trans-2-p-mentha-1,8-dien-3-yl-5-pentylresorcinol]
[1]; [3]
  Clast: 0.867 ng/mL
  Tlast: 120.01 h
  λz: 0.0257 h⁻¹
[1]; [4]
  AUCextrap: 3.84%
  Clast: 6.36 ng/mL
  Tlast: 120.00 h
  λz: 0.0165 h⁻¹
[1]; single 20 mg/kg oral, fasted, mean ± SD
  AUC: 0.325 ± 1.17 ng·h/mL
[1]; single 20 mg/kg oral, fed, mean ± SD
  AUC: 0.229 ± 0.636 ng·h/mL
[1]; AUC0-0.25, cannabidiol, single 20 mg/kg oral, fasted, mean ± SD
  AUC(0-t): 0.363 ± 1.31 ng·h/mL
[1]; AUC0-0.25, cannabidiol, single 20 mg/kg oral, fed, mean ± SD
  AUC(0-t): 0.498 ± 0.874 ng·h/mL
[1]; AUC0-0.5, cannabidiol, single 20 mg/kg oral, fasted, mean ± SD
  AUC(0-t): 0.584 ± 1.33 ng·h/mL
[1]; AUC0-0.5, cannabidiol, single 20 mg/kg oral, fed, mean ± SD
  AUC(0-t): 2.45 ± 3.38 ng·h/mL
[1]; AUC0-0.75, cannabidiol, single 20 mg/kg oral, fasted, mean ± SD
  AUC(0-t): 1.25 ± 1.34 ng·h/mL
[1]; AUC0-0.75, cannabidiol, single 20 mg/kg oral, fed, mean ± SD
  AUC(0-t): 7.48 ± 11.2 ng·h/mL
[1]; AUC0-1, cannabidiol, single 20 mg/kg oral, fasted, mean ± SD
  AUC(0-t): 1.93 ± 1.62 ng·h/mL
[1]; AUC0-1, cannabidiol, single 20 mg/kg oral, fed, mean ± SD
  AUC(0-t): 21.8 ± 40 ng·h/mL
[1]; AUC0-1.5, cannabidiol, single 20 mg/kg oral, fasted, mean ± SD
  AUC(0-t): 2.79 ± 2.14 ng·h/mL
[1]; AUC0-1.5, cannabidiol, single 20 mg/kg oral, fed, mean ± SD
  AUC(0-t): 128 ± 215 ng·h/mL
[1]; AUC0-2, cannabidiol, single 20 mg/kg oral, fasted, mean ± SD
  AUC(0-t): 4.14 ± 2.75 ng·h/mL
[1]; AUC0-2, cannabidiol, single 20 mg/kg oral, fed, mean ± SD
  AUC(0-t): 269 ± 381 ng·h/mL
[1]; AUC0-2.5, cannabidiol, single 20 mg/kg oral, fasted, mean ± SD
  AUC(0-t): 5.38 ± 4.09 ng·h/mL
[1]; AUC0-2.5, cannabidiol, single 20 mg/kg oral, fed, mean ± SD
  AUC(0-t): 424 ± 547 ng·h/mL
[1]; AUC0-3, cannabidiol, single 20 mg/kg oral, fasted, mean ± SD
  AUC(0-t): 5.88 ± 3.99 ng·h/mL
[1]; AUC0-3, cannabidiol, single 20 mg/kg oral, fed, mean ± SD
  AUC(0-t): 535 ± 675 ng·h/mL
[1]; AUC0-4, cannabidiol, single 20 mg/kg oral, fasted, mean ± SD
  AUC(0-t): 6.62 ± 3.85 ng·h/mL
[1]; AUC0-4, cannabidiol, single 20 mg/kg oral, fed, mean ± SD
  AUC(0-t): 812 ± 874 ng·h/mL
[1]; AUC0-6, cannabidiol, single 20 mg/kg oral, fasted, mean ± SD
  AUC(0-t): 12 ± 9.29 ng·h/mL
[1]; AUC0-6, cannabidiol, single 20 mg/kg oral, fed, mean ± SD
  AUC(0-t): 1090 ± 886 ng·h/mL
[1]; AUC0-8, cannabidiol, single 20 mg/kg oral, fasted, mean ± SD
  AUC(0-t): 22.9 ± 39.3 ng·h/mL
[1]; AUC0-8, cannabidiol, single 20 mg/kg oral, fed, mean ± SD
  AUC(0-t): 819 ± 590 ng·h/mL
[1]; AUC0-12, cannabidiol, single 20 mg/kg oral, fasted, mean ± SD
  AUC(0-t): 14.7 ± 10.2 ng·h/mL
[1]; AUC0-12, cannabidiol, single 20 mg/kg oral, fed, mean ± SD
  AUC(0-t): 372 ± 338 ng·h/mL
[1]; AUC0-16, cannabidiol, single 20 mg/kg oral, fasted, mean ± SD
  AUC(0-t): 9.76 ± 4.79 ng·h/mL
[1]; AUC0-16, cannabidiol, single 20 mg/kg oral, fed, mean ± SD
  AUC(0-t): 112 ± 133 ng·h/mL
[1]; AUC0-24, cannabidiol, single 20 mg/kg oral, fasted, mean ± SD
  AUC(0-t): 5.45 ± 2.76 ng·h/mL
[1]; AUC0-24, cannabidiol, single 20 mg/kg oral, fed, mean ± SD
  AUC(0-t): 34.3 ± 11.7 ng·h/mL
[1]; AUC0-36, cannabidiol, single 20 mg/kg oral, fasted, mean ± SD
  AUC(0-t): 5 ± 3.78 ng·h/mL
[1]; AUC0-36, cannabidiol, single 20 mg/kg oral, fed, mean ± SD
  AUC(0-t): 20.7 ± 5.11 ng·h/mL
[1]; AUC0-48, cannabidiol, single 20 mg/kg oral, fasted, mean ± SD
  AUC(0-t): 2.66 ± 2.4 ng·h/mL
[1]; AUC0-48, cannabidiol, single 20 mg/kg oral, fed, mean ± SD
  AUC(0-t): 15.5 ± 4.31 ng·h/mL
[1]; AUC0-72, cannabidiol, single 20 mg/kg oral, fasted, mean ± SD
  AUC(0-t): 1.73 ± 1.89 ng·h/mL
[1]; AUC0-72, cannabidiol, single 20 mg/kg oral, fed, mean ± SD
  AUC(0-t): 10.1 ± 3.42 ng·h/mL
[1]; AUC0-96, cannabidiol, single 20 mg/kg oral, fasted, mean ± SD
  AUC(0-t): 1.35 ± 1.73 ng·h/mL
[1]; AUC0-96, cannabidiol, single 20 mg/kg oral, fed, mean ± SD
  AUC(0-t): 7.86 ± 2.44 ng·h/mL
[1]; AUC0-120, cannabidiol, single 20 mg/kg oral, fasted, mean ± SD
  AUC(0-t): 0.867 ± 1.34 ng·h/mL
[1]; AUC0-120, cannabidiol, single 20 mg/kg oral, fed, mean ± SD
  AUC(0-t): 6.36 ± 2.24 ng·h/mL
[1]; AUC0-inf, cannabidiol, single 20 mg/kg oral dose of cannabidiol solution, fasted, mean
  AUC(0-inf): 360 ng·h/mL
[1]; AUC0-inf, cannabidiol, single 20 mg/kg oral dose of cannabidiol solution, fed, mean
  AUC(0-inf): 10100 ng·h/mL
[1]; AUC0-t, cannabidiol, single 20 mg/kg oral dose of cannabidiol solution, fasted, mean
  AUC(0-t): 466 ng·h/mL
[1]; AUC0-t, cannabidiol, single 20 mg/kg oral dose of cannabidiol solution, fed, mean
  AUC(0-t): 9650 ng·h/mL
[1]; Cmax, cannabidiol, single 20 mg/kg oral dose of cannabidiol solution, fasted, mean
  Cmax: 27.3 ng/mL
[1]; Cmax, cannabidiol, single 20 mg/kg oral dose of cannabidiol solution, fed, mean
  Cmax: 1560 ng/mL
[1]; cannabidiol, single 20 mg/kg oral dose of cannabidiol solution, fasted
  Tmax: 12 h
[1]; cannabidiol, single 20 mg/kg oral dose of cannabidiol solution, fed
  Tmax: 6 h
[1]; ln(AUC0-inf) Geometric Mean, cannabidiol, 20 mg/kg oral, Fasted, least squares geometric mean, period removed from model
  AUC(0-inf): 326 ng·h/mL
[1]; ln(AUC0-inf) Geometric Mean, cannabidiol, 20 mg/kg oral, Fed, least squares geometric mean, period removed from model
  AUC(0-inf): 9580 ng·h/mL
[1]; ln(AUC0-t) Geometric Mean, cannabidiol, 20 mg/kg oral, Fasted, least squares geometric mean
  AUC(0-t): 669 ng·h/mL
[1]; ln(AUC0-t) Geometric Mean, cannabidiol, 20 mg/kg oral, Fed, least squares geometric mean
  AUC(0-t): 9210 ng·h/mL
[1]; ln(Cmax) Geometric Mean, cannabidiol, 20 mg/kg oral, Fasted, least squares geometric mean
  Cmax: 44.5 ng/mL
[1]; ln(Cmax) Geometric Mean, cannabidiol, 20 mg/kg oral, Fed, least squares geometric mean
  Cmax: 1390 ng/mL
[2]
  subjects with somnolence related to the CBD: 7.7%
  subjects with weight increase related to the CBD: 7.7%
clinical; fasted
  CL/F: 1140 mL/min/kg
  Vd/F: 2680 L/kg
  half-life: 27.9 h
clinical; fed
  CL/F: 36.2 mL/min/kg
  Vd/F: 133 L/kg
  half-life: 42.3 h
